Tested on: Ceratitis capitata flies
Test: Photoinsecticidal action: fly survival after bait and visible light irradiation (artificial lamp)
Assay type: in vivo
Details: for Survival (% of control untreated flies): survival 10 h after irradiation; for photoinsecticidal action compared among alkylated porphyrins: irradiation with visible light or sunlight
Description: Porphyrins: • a) meso[tri(N-methyl-pyridyl), mono(N-dodecyl-pyridyl)]porphine (abbr.: C12) • b) meso[tri(N-methyl-pyridyl), mono(N-tetradecyl-pyridyl)]porphine (abbr.: C14) • c) meso[tri(N-methyl-pyridyl), mono(N-octadecyl-pyridyl)]porphine (abbr.: C18) Bait: Aqueous solution containing 10% sucrose and 1% autolysed yeast Flies: • a) Ceratitis capitata (fruit fly) age: 1 week; weight: 5-6 mg • b) Bactrocera oleae (olive fly) age: 10 days; weight: 4-4.5 mg • c) Stomoxis calcitrans (stable fly) age: 10 days; weight: 12 mg Irradiation: • a) High pressure halogen lamp, equipped with infrared and UV filters, emission 360-850 nm, operated at intensities in the 760-2,000 μE s^−1m^−2 range • b) Sunlight, mid June at Padua latitude, average intensity of […] μE s^−1m^−2 with minimum and maximum values of 950 and, respectively, 1,380 μE s^−1m^−2
The irradiations were performed for 1 h, then the flies were kept in dim light for monitoring the survival. Control flies were irradiated under identical conditions after feeding with a porphyrin-free bait.
The irradiations were performed for 1 h at a fluence-rate of 1220 μE s^−1m^−2. The survival was evaluated 10 h after the end of irradiation. […] The porphyrins are abbreviated as following: HP: haematoporphyrin; C1: meso-tetra(N-methyl-pyridyl)porphine.
The survival was evaluated 10 h after the end of irradiation.
An appropriate number of flies (50 flies per each experiment) was caged in 115×55×70 mm Plexiglas cages with several holes (ø=0.5 mm) and starved for 36 h. Then, depending on the protocol to be adopted for each specific experiment, the flies were fed with the bait (10% sucrose and 1% autolysed yeast in neutral aqueous solution), which was either porphyrin-free or added with a predetermined concentration of the porphyrin. These flies were then used in the various experimental sessions. […]

[1] = 3 μM in bait 24 h, time interval feeding-irradiation 0 h, irradiation 1 h at 1220 μE s^−1m^−2
[2] = 3 μM in bait 24 h, time interval feeding-irradiation 12 h, irradiation 1 h at 1220 μE s^−1m^−2
[3] = 3 μM in bait 24 h, time interval feeding-irradiation 24 h, irradiation 1 h at 1220 μE s^−1m^−2
[4] = 3 μM in bait 24 h, time interval feeding-irradiation 48 h, irradiation 1 h at 1220 μE s^−1m^−2
[5] = 3 μM in bait, fluence-rate 760 μE s^−1m^−2, irradiated 24 h after feeding (title)
[6] = 3 μM in bait, fluence-rate 1220 μE s^−1m^−2, irradiated 24 h after feeding (title)
[7] = 3 μM in bait, fluence-rate 1500 μE s^−1m^−2, irradiated 24 h after feeding (title)
[8] = 3 μM in bait, fluence-rate 2000 μE s^−1m^−2, irradiated 24 h after feeding (title)

Row | SMILES | Survival (% of control untreated flies) [1] | Survival (% of control untreated flies) [2] | Survival (% of control untreated flies) [3] | Survival (% of control untreated flies) [4] | Survival (% of control untreated flies) [5] | Survival (% of control untreated flies) [6] | Survival (% of control untreated flies) [7] | Survival (% of control untreated flies) [8] | time by which essentially all flies died (after 1 h illumination with artificial light or sunlight) [min] | photoinsecticidal action compared among alkylated porphyrins
1 | CCCCCCCCCCCC[n+]1ccc(-c2c3nc(c(-c4cc[n+](C)cc4)c4ccc([nH]4)c(-c4cc[n+](C)cc4)c4nc(c(-c5cc[n+](C)cc5)c5ccc2[nH]5)C=C4)C=C3)cc1 [C12, meso[tri(N-methyl-pyridyl), mono(N-dodecyl-pyridyl)]porphine] | 4 % of control untreated flies | 8 % of control untreated flies | 23 % of control untreated flies | 37 % of control untreated flies | 13 % of control untreated flies | 4 % of control untreated flies | 2 % of control untreated flies | 0 % of control untreated flies |  | 
2 | CCCCCCCCCCCCCC[n+]1ccc(-c2c3nc(c(-c4cc[n+](C)cc4)c4ccc([nH]4)c(-c4cc[n+](C)cc4)c4nc(c(-c5cc[n+](C)cc5)c5ccc2[nH]5)C=C4)C=C3)cc1 [C14, meso[tri(N-methyl-pyridyl), mono(N-tetradecyl-pyridyl)]porphine] | 0 % of control untreated flies | 0 % of control untreated flies | 10 % of control untreated flies | 21 % of control untreated flies | 10 % of control untreated flies | 0 % of control untreated flies | 0 % of control untreated flies | 0 % of control untreated flies | ≤ 45 | most efficient insecticidal action
3 | CCCCCCCCCCCCCCCCCC[n+]1ccc(-c2c3nc(c(-c4cc[n+](C)cc4)c4ccc([nH]4)c(-c4cc[n+](C)cc4)c4nc(c(-c5cc[n+](C)cc5)c5ccc2[nH]5)C=C4)C=C3)cc1 [C18, meso[tri(N-methyl-pyridyl), mono(N-octadecyl-pyridyl)]porphine] | 45 % of control untreated flies | 52 % of control untreated flies | 64 % of control untreated flies | 70 % of control untreated flies | 52 % of control untreated flies | 45 % of control untreated flies | 40 % of control untreated flies | 31 % of control untreated flies |  | drop in the overall photoactivity
